Measurements from patent US12655113B2, “Biphenyl compounds as SOCE modulators, compositions and uses thereof” (Università degli Studi del Piemonte Orientale “Amedeo …, priority 2020, dated 2026).

tested on: tBHQ-induced calcium influx into Hek cells (SOCE); assay: Store-operated calcium entry (SOCE) by Fura-2 Ca2+ measurements in Hek cells; type: cell-based, Human; conditions: FIG. 2A; HEK cells, stores depleted with 50 μM tBHQ, compound added with 2 mM Ca2+

**Q.** For `COc1cccc(-c2ccc(-n3cc(-c4cccc(C(=O)O)c4)nn3)cc2)c1OC` [Compound 20, 3-(1-(2′,3′-dimethoxy-[1,1′-biphenyl]-4-yl)-1H-1,2,3-triazol-4-yl)benzoic acid], which “Calcium response to SOCE-modulators (regulation of SOCE)” value is on record?
**A.** Its value is “negatively regulate SOCE”.

**Q.** With `COc1ccc(OC)c(-c2ccc(-n3cc(-c4ccncc4F)nn3)cc2)c1` [Compound 26, 4-(1-(2′,5′-dimethoxy-[1,1′-biphenyl]-4-yl)-1H-1,2,3-triazol-4-yl)-3-fluoropyridine] as the compound, how does the “Calcium response to SOCE-modulators (regulation of SOCE)” value read?
**A.** The value was “no activity”.

same assay, conditions: Homo sapiens, HEK293; Hek cells, 3 μM

**Q.** `COc1ccc(OC)c(-c2ccc(-n3cc(-c4cccc(C(=O)O)c4)nn3)cc2)c1` [Compound 24, 3-(1-(2′,5′-dimethoxy-[1,1′-biphenyl]-4-yl)-1H-1,2,3-triazol-4-yl)benzoic acid] was tested. Which inhibition at 3 µM did it give?
**A.** Its inhibition at 3 µM is 85.8 ± 6.5%.

**Q.** Which inhibition at 3 µM does the source give for `COc1cccc(-c2ccc(-c3cn(-c4cccc(C(=O)O)c4)nn3)cc2)c1OC` [Compound 42, 3-(4-(2′,3′-dimethoxy-[1,1′-biphenyl]-4-yl)-1H-1,2,3-triazol-1-yl)benzoic acid] here?
**A.** Its inhibition at 3 µM is 93.2 ± 5.1%.

**Q.** `COc1ccc(OC)c(-c2ccc(-c3cn(-c4cccc(C(=O)O)c4)nn3)cc2)c1` [Compound 46, 3-(4-(2′,5′-dimethoxy-[1,1′-biphenyl]-4-yl)-1H-1,2,3-triazol-1-yl)benzoic acid] was tested. Which inhibition at 3 µM did it give?
**A.** The inhibition at 3 µM was 78.7 ± 3.8%.

same assay, conditions: Homo sapiens, HEK293; Hek cells, 3 μM; read-out: Residual activity of SOCE

**Q.** How did the activity at 3 µM turn out when `COc1cccc(OC)c1-c1ccc(-c2cn(-c3cccc(C(=O)O)c3)nn2)cc1` [Compound 44, 3-(4-(2′,6′-dimethoxy-[1,1′-biphenyl]-4-yl)-1H-1,2,3-triazol-1-yl)benzoic acid] was run?
**A.** Its activity at 3 µM is 122.8 ± 0.89%.

same assay, conditions: Homo sapiens, HEK293; Hek cells, 10 μM

**Q.** How did the inhibition at 10 µM turn out when `CSc1cccc(-c2ccc(-n3cc(-c4cccc(C(=O)O)c4)nn3)cc2)c1` [Compound 11, 3-(1-(3′-(methylthio)-[1,1′-biphenyl]-4-yl)-1H-1,2,3-triazol-4-yl)benzoic acid] was run?
**A.** The inhibition at 10 µM was 72.6 ± 13.6%.

**Q.** For `COc1ccccc1-c1ccc(-n2cc(-c3cccc(C(=O)O)c3)nn2)cc1` [Compound 12, 3-(1-(2′-methoxy-[1,1′-biphenyl]-4-yl)-1H-1,2,3-triazol-4-yl)benzoic acid], which inhibition at 10 µM is on record?
**A.** Its inhibition at 10 µM is 47.2 ± 7.2%.

**Q.** Which inhibition at 10 µM does the source give for `COc1ccc(-c2ccc(-n3cc(-c4cccc(C(=O)O)c4)nn3)cc2)c(OC)c1` [Compound 15, 3-(1-(2′,4′-dimethoxy-[1,1′-biphenyl]-4-yl)-1H-1,2,3-triazol-4-yl)benzoic acid] here?
**A.** The inhibition at 10 µM was 68.1 ± 4.2%.

**Q.** Which inhibition at 10 µM does the source give for `COc1cc(OC)cc(-c2ccc(-n3cc(-c4cccc(C(=O)O)c4)nn3)cc2)c1` [Compound 16, 3-(1-(3′,5′-dimethoxy-[1,1′-biphenyl]-4-yl)-1H-1,2,3-triazol-4-yl)benzoic acid] here?
**A.** The inhibition at 10 µM was 77.4 ± 4.7%.

**Q.** How did the inhibition at 10 µM turn out when `O=C(O)c1cccc(-c2cn(-c3ccc(-c4ccc5c(c4)OCO5)cc3)nn2)c1` [Compound 17, 3-(1-(4-(benzo[d][1,3]dioxol-5-yl)phenyl)-1H-1,2,3-triazol-4-yl)benzoic acid] was run?
**A.** The inhibition at 10 µM was 37.3 ± 4.2%.

**Q.** `COc1ccc(OC)c(-c2ccc(-n3cc(-c4ccnc(C(=O)O)c4)nn3)cc2)c1` [Compound 25, 4-(1-(2′,5′-dimethoxy-[1,1′-biphenyl]-4-yl)-1H-1,2,3-triazol-4-yl)picolinic acid] was tested. Which inhibition at 10 µM did it give?
**A.** Its inhibition at 10 µM is 79.9 ± 4.1%.

**Q.** How did the inhibition at 10 µM turn out when `COc1ccccc1-c1ccc(-c2cn(-c3cccc(C(=O)O)c3)nn2)cc1` [Compound 35, 3-(4-(2′-methoxy-[1,1′-biphenyl]-4-yl)-1H-1,2,3-triazol-1-yl)benzoic acid] was run?
**A.** Its inhibition at 10 µM is 59.6 ± 5.43%.

**Q.** With `COc1cccc(-c2ccc(-c3cn(-c4cccc(C(=O)O)c4)nn3)cc2)c1` [Compound 36, 3-(4-(3′-methoxy-[1,1′-biphenyl]-4-yl)-1H-1,2,3-triazol-1-yl)benzoic acid] as the compound, how does the inhibition at 10 µM read?
**A.** Its inhibition at 10 µM is 87 ± 1.1%.

**Q.** Which inhibition at 10 µM does the source give for `COc1ccc(-c2ccc(-c3cn(-c4cccc(C(=O)O)c4)nn3)cc2)c(OC)c1` [Compound 37, 3-(4-(2′,4′-dimethoxy-[1,1′-biphenyl]-4-yl)-1H-1,2,3-triazol-1-yl)benzoic acid] here?
**A.** Its inhibition at 10 µM is 77.1 ± 0.9%.

**Q.** With `COc1cc(OC)cc(-c2ccc(-c3cn(-c4cccc(C(=O)O)c4)nn3)cc2)c1` [Compound 38, 3-(4-(3′,5′-dimethoxy-[1,1′-biphenyl]-4-yl)-1H-1,2,3-triazol-1-yl)benzoic acid] as the compound, how does the inhibition at 10 µM read?
**A.** Its inhibition at 10 µM is 86.2 ± 4.2%.

**Q.** `COc1ccc(OC)c(-c2ccc(-c3cn(-c4cccc(C(=O)O)c4)nn3)cc2)c1` [Compound 46, 3-(4-(2′,5′-dimethoxy-[1,1′-biphenyl]-4-yl)-1H-1,2,3-triazol-1-yl)benzoic acid] was tested. Which inhibition at 10 µM did it give?
**A.** The inhibition at 10 µM was 87.8 ± 2.9%.

**Q.** For `COC(=O)c1cc(-n2cc(-c3ccc(-c4cc(OC)ccc4OC)cc3)nn2)ccn1` [Compound 47, methyl 4-(4-(2′,5′-dimethoxy-[1,1′-biphenyl]-4-yl)-1H-1,2,3-triazol-1-yl)picolinate], which inhibition at 10 µM is on record?
**A.** Its inhibition at 10 µM is 73.5 ± 1.4%.
